Assay [1] deals with T. b. brucei L427 WT bloodstream form. Briefly: Activity against T. brucei bloodstream forms (resazurin-based assay). Type of assay: cell-based. The conditions noted are these: Trypanosoma brucei; 10 μM, 72 h; read-out: Single Dose Assay 10μM Mean Inhibitory Activity (%) ± SD. As for the experimental part: Trypanosoma brucei brucei Lister 427 bloodstream forms were grown at 37 °C, 5% CO2 in complete HMI-9 medium supplemented with 10% foetal calf serum (FCS) and 100 UI/mL of penicillin/streptomycin. […] The efficacy of compounds against T. brucei bloodstream forms was evaluated using a modified resazurin-based assay previously described. Mid-log bloodstream forms were added to an equal volume of serial dilutions of compounds in supplemented complete HMI-9 medium at a final cell density of 5 × 10^3/mL. Following incubation for 72 h at 37 °C 5% CO2, 20 μL of a 0.5 mM resazurin solution was added and plates were incubated for a further 4 h under the same conditions. Fluorescence was measured at 540 nm and 620 nm excitation and emission wavelength, respectively, using a Synergy 2 Multi-Mode Reader (Biotek, Winooski, VT, USA).
(In general: Alamar Blue is a resazurin reagent that responds to reducing activity.)

The subject of assay [2] is L. infantum MHOM/TN/80/LEM235 intracellular amastigotes. Briefly: Activity against L. infantum MHOM/TN/80/LEM235 intramacrophage amastigotes (infected THP-1, Giemsa staining). Type of assay: cell-based, Leishmania infantum. The conditions noted are these: for Selectivity Index CC50/IC50: CC50 THP-1 / IC50 L. infantum MHOM/TN/80/LEM235; for IC50: Leishmania infantum, read-out: L. infantum MHOM/TN/80/LEM235 intracellular amastigotes IC50 ± SD. As for the experimental part: THP-1 cells were differentiated with […] retinoic acid (Sigma, Saint Louis, MI, USA) for 3 days at 37 °C and 5% CO2. Infection of THP-1 cells with promastigotes was achieved by mixing the THP-1 and the parasite cultures at a ratio of 1:4 and incubation at 37 °C and 5% CO2. The next day cells were washed by centrifugation at 400 × g for 10 min, the pellet was resuspended in RPMI medium, and the suspension was overlaid with an equal volume of Histopaque 1077 (Invitrogen, Waltham, MA, USA). The free promastigotes were removed by centrifugation at 1000 × g for 20 min. The cell layer was washed with PBS twice and resuspended in RPMI at 4 × 10^5 cells/mL. Infection rate was assessed microscopically by Giemsa staining of the infected THP-1 suspension. An amount of 200 µL of infected THP-1 was plated in a 24-well tissue culture plate (Cellstar®, Greiner) (Sigma-Aldrich Chemie GMBH, Taufkirchen, Germany) and mixed with an equal volume of the appropriate compound concentration (compounds were dissolved in DMSO/ethanol, 50/50 v/v, to a final concentration of 65 mM and linear 5-fold dilutions ranging from 100 to 0.8 µM were done in the culture medium). Incubation proceeded for 72 h at 37 °C and 5% CO2, and the percentage of infected cells was monitored microscopically after Giemsa staining.

For assay [3], the system named is T. cruzi epimastigotes (Y strain). Nature of the assay: Antiproliferative assay on T. cruzi epimastigotes. In kind it is cell-based. The conditions noted are these: Trypanosoma cruzi. How it is done: T. cruzi epimastigotes (Y strain) were obtained by axenic cultivation in the LIT medium, supplemented with 10% FBS (Cultilab, São Paulo, Brazil). Cultures were maintained at […] for 4–5 days until they reached the log growth phase. New cultures were made every 4 days from the initial inoculum of 2 × 10^6 parasites/mL. T. cruzi trypomastigotes (Y strain) were maintained in culture by the infection of LLC-MK2 (ATTC-CCL7) epithelial cells. This cell line was cultured in […] tissue culture bottles (TPP) in RPMI 1640 medium (Gibco), (Thermo Fischer Scientific, Carlsbad, CA, USA) supplemented with 10% FBS (Gibco) (Thermo Fischer Scientific, Carlsbad, CA, USA). Cultures were maintained at 37 °C under 5% CO2 atmosphere, and RPMI 1640 medium and SFB were exchanged every 48 h. After confluence, the cultures were treated with 1 mL of a mixture of trypsin and versene (Sigma, São Paulo, Brazil) (0.2 and 0.002%, respectively). After 24 h, a subconfluence culture was infected with the trypomastigotes in the approximate proportion of 10:1 parasites/cell. From five to seven days post infection, the trypomastigote stage was obtained from the culture supernatant. Alternatively (Figure 2), T. cruzi strain Y was maintained as previously described.
The trypomastigotes were obtained from the supernatant of a previously infected cell line (LLC-MK2). Between 5 and 7 days after infection, protozoa were collected from the supernatants of the infected LLC-MK2 cells and were then incubated with fresh RPMI 1640 medium supplemented with 0.5% FBS, with or without the compounds, for 24 h at 37 °C under a 5% CO2 atmosphere. […] The experiment was performed in duplicate for each of the three different experiments. For the antiproliferative assay involving epimastigotes, […] were cultivated in LIT medium supplemented with 10% FBS. After 24 h of epimastigote growth, different concentrations of 50 nM to 50 µM were added to the culture and incubated for 120 h at 28 °C. Cells were collected every 24 h for counting in a Neubauer chamber. Two controls were used and consisted of liver infusion broth-tryptose (LIT) supplemented with 10% FBS and LIT added with 0.01% DMSO. To investigate the effect of the compounds on intracellular amastigotes, peritoneal macrophages from Swiss mouse (CF1) plated in 96 wells plates (Costar®, Sigma, São Paulo, Brazil) were incubated for 2 h with T. cruzi trypomastigotes at a ratio of 10 parasites to 1 cell. The non-internalized parasites were removed by washing with the RPMI 1640 medium, and the host cells were incubated for 24 h at 37 °C to allow full internalization and differentiation of trypomastigotes to amastigotes. Fresh 10% FBS-RPMI 1640 medium with 1 µg/mL Hoescht 3348 and 1 µg/mL of WGA-FITC (control) or the same solution containing the inhibitors was added to the infected cells, which were then incubated for 96 h at 37 °C. Every 24 h samples were taken and analysed in high content equipment (InCell Analyser 2000, GE Healthcare, Chicago, IL, USA) with 20× air objective (NA 0.4) using respectively filters to excitation and emission to DAPI (405/455 nm), FITC (488/505 nm) and Cy3 (514/605 nm). Six images were collected for each well for reliable statistical analysis. […] The infection index (i.e., the percentage of infected host cells multiplied by the average number of intracellular amastigotes per infected host cell) was determined by counting a total of 500 host cells. Inhibitor activity was calculated using the SigmaPlot (version 10) program (Systat Software, Inc., San Jose, CA, USA). The results are expressed as the mean values from three independent experiments. The IC50 was calculated for promastigotes and intracellular amastigotes by fitting the values to a non-linear curve analysis. The regression analyses were performed with SigmaPlot 10 (version 10) program (Systat Software, Inc., San Jose, CA, USA).

Where [4] appears, read: epimastigotes, 24 h, read-out: IC50 24 h.
[5] abbreviates: epimastigotes, 48 h, read-out: IC50 48 h.
Where [6] appears, read: epimastigotes, 72 h, read-out: IC50 72 h.

The structures appear in SMILES notation. Counter-ions that a name gives are not always drawn. Like-named read-outs stand apart in the source and are kept apart here.

`C[N+](C)(C)CCOP(=O)([O-])OCCCCCCCCCCCn1cc(CC2CCCC2)nn1` [Compound 28, 11-(4-(cyclopentylmethyl)-1H-1,2,3-triazol-1-yl)undecyl (2-(trimethylammo nio)ethyl) phosphate inner salt]: the inhibition at 10 µM in assay [1] was under 20%. Besides, in assay [2], the “Selectivity Index CC50/IC50” value is reported as over 66.7. In assay [2] (infected THP-1 cells, 72 h), the IC50 came to 1.5 ± 0.4 µM.
As for `C[N+](C)(C)CCOP(=O)([O-])OCCCCCn1cc(CCCCCCCCNC(=O)OCc2ccccc2)nn1` [Compound 31, 5-(4-(8-(((benzyloxy)carbonyl)amino)octyl)-1H-1,2,3-triazol-1-yl)pentyl (2-(trimethylammonio)ethyl) phosphate inner salt], the inhibition at 10 µM in assay [1] was found to be 20 ± 1%.
Turning to `C[N+](C)(C)CCCOP(=O)([O-])OCCCCCCCCCCCn1cc(CC2CCCCC2)nn1` [Compound 33, 11-(4-(cyclohexylmethyl)-1H-1,2,3-triazol-1-yl)undecyl (3-(trimethylammonio)propyl) phosphate inner salt], the inhibition at 10 µM in assay [1] was determined as 23 ± 3%.
For the compound `CCCCCc1cn(CCCCCCCCCCCOP(=O)([O-])OCC[N+](C)(C)C)nn1` [Compound 25, 11-(4-pentyl-1H-1,2,3-triazol-1-yl)undecyl (2-(trimethylammonio)ethyl) phosphate inner salt], the IC50 turned out to be 7.8 µM in assay [3] (setting [4]); 3.85 µM in assay [3] (setting [5]); 2.16 µM in assay [3] (setting [6]); 9.33 ± 0.99 µM in assay [2] (infected THP-1 cells, 72 h). Moreover, in assay [2], the “Selectivity Index CC50/IC50” value is given as over 10.7.
In the case of `C[N+](C)(C)CCOP(=O)([O-])OCCCCCCCCCCCn1cc(CCCCCCCCNC(=O)OCc2ccccc2)nn1` [Compound 32, 11-(4-(8-(((benzyloxy)carbonyl)amino)octyl)-1H-1,2,3-triazol-1-yl)undecyl (2-(trimethylammonio)ethyl) phosphate inner salt], the inhibition at 10 µM in assay [1] was found to be 36 ± 4%.
Regarding `C[N+](C)(C)CCOP(=O)([O-])OCCCCCCCCCCCn1cc(CC2CCCCC2)nn1` [Compound 29, 11-(4-(cyclohexylmethyl)-1H-1,2,3-triazol-1-yl)undecyl (2-(trimethylammonio)ethyl) phosphate inner salt], the IC50 in assay [3] (setting [4]) is over 10 µM; in assay [3] (setting [5]) it was over 10 µM; in assay [3] (setting [6]), over 10 µM; in assay [2] (infected THP-1 cells, 72 h), 0.5 ± 0.2 µM. Also, the “Selectivity Index CC50/IC50” value in assay [2] was over 200.
Turning to `CCCCCCCCCCCCCCCCOP(=O)([O-])OCC[N+](C)(C)C` [Miltefosine, hexadecylphosphocholine, reference compound], the IC50 is 18.4 ± 1.2 µM in assay [3] (24 h, read-out: IC50 24 h); 9.5 ± 0.9 µM in assay [3] (48 h, read-out: IC50 48 h); 8.34 µM in assay [3] (72 h, read-out: IC50 72 h); 6.68 ± 0.96 µM in assay [2] (THP-1, 72 h). For the same compound, the “Selectivity Index CC50/IC50” value in assay [2] is reported as 4.9.

(Values after paper PMC8305768, “Design, Synthesis and Antiparasitic Evaluation of Click Phospholipids” (Molecules, 2021).)
